In PMC4042574, “Phenolic Lipids Affect the Activity and Conformation of Acetylcholinesterase from Electrophorus electricus (Electric eel)” (Nutrients, 2014):
Read-outs that look alike come from different tables or passages of the source.

Target: acetylcholinesterase (AChE) from Electrophorus electricus (electric eel) (Electrophorus electricus, UniProt O42275)
Experiment: Ellman assay, […] nm
Format: biochemical

Chain of acetylcholinesterase (AChE) from Electrophorus electricus (electric eel) (O42275 24-633): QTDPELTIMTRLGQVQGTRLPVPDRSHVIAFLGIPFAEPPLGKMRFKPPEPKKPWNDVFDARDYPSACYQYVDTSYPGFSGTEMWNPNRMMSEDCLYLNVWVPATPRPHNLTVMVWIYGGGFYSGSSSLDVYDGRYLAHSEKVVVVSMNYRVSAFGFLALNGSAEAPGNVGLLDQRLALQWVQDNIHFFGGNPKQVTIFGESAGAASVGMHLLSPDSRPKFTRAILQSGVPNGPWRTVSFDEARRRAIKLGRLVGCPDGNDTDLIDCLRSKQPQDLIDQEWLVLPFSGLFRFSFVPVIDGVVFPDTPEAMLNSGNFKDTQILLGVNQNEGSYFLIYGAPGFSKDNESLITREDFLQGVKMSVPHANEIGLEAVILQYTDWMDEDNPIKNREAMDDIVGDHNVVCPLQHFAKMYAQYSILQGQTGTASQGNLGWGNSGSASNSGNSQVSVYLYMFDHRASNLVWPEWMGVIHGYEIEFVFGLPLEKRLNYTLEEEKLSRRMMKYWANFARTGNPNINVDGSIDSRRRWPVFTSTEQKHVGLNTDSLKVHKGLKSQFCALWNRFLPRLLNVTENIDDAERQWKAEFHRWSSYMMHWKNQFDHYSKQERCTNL

| Molecule | IC50 | IC50 (acetylthiocholine iodide (0.476 μM as printed), pH 8.0, 37 °C, 5 min pre-incubation) |
| --- | --- | --- |
| CCCCCCCCCCCCCCCc1cc(O)cc(O)c1 [AR 15:0] | > 94 µM |  |
| CCCCCCCCCCCCCCCCCCCc1cc(O)cc(O)c1 [AR 19:0] | 77 ± 1.25 µM |  |
| CCCCCCCCCCCCCCCCCCCCCc1cc(O)cc(O)c1 [AR 21:0] | 44 ± 0.47 µM |  |
| CCCCCCCCCCCCCCCCCCCCCCCCCc1cc(O)cc(O)c1 [AR 25:0] | 44 ± 4.24 µM |  |
| Cardol |  | 3.5 ± 0.2 µM |
